Reference: US20170050957A1, “4-AMINO-6-(HETEROCYCLIC)PICOLINATES AND 6-AMINO-2-(HETEROCYCLIC)PYRIMIDINE-4-CARBOXYLATES AND THEIR USE AS HERBICIDES” (Dow AgroSciences LLC, priority 2013, published 2017)
Like-named read-outs stand apart in the source and are kept apart here.

How the values were obtained:
[1] = test system: Key Broadleaf Weed and Crop Species; assay: Post-emergent Test II herbicidal activity (Table 15); format: in vivo; conditions: post-emergence, 336 h, 14 d; for pest or weed control at 35 g/ha: 35 g ai/ha; for pest or weed control at 70 g/ha: 70 g ai/ha; for pest or weed control at 140 g/ha: 140 g ai/ha
Procedure, shortened: (§1)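 Herbicidal effect scored as percent visual injury, 14 d after post-emergent application. Spray solutions contained acetone, DMSO, isopropyl alcohol, crop oil concentrate and surfactant, applied at 187 L/ha to young plants (1-2 true leaves).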

[2] = test system: Key Grass and Sedge Weeds as well as Grass Crops; assay: Post-emergent Test II herbicidal activity (Table 16); format: in vivo; conditions: post-emergence, 336 h, 14 d; for pest or weed control at 35 g/ha: 35 g ai/ha; for pest or weed control at 70 g/ha: 70 g ai/ha; for pest or weed control at 140 g/ha: 140 g ai/ha
Procedure, shortened: as §1

[3] = Abutilon theophrasti, velvetleaf (Abutilon theophrasti), read-out: Visual Growth Reduction (%) 14 Days After Application, ABUTH
[4] = Amaranthus retroflexus, redroot pigweed (Amaranthus retroflexus), read-out: Visual Growth Reduction (%) 14 Days After Application, AMARE
[5] = Brassica napus, oilseed rape, canola (Brassica napus), read-out: Visual Growth Reduction (%) 14 Days After Application, BRSNN
[6] = Chenopodium album, lambsquarters (Chenopodium album), read-out: Visual Growth Reduction (%) 14 Days After Application, CHEAL
[7] = Euphorbia heterophylla, wild poinsettia (Euphorbia heterophylla), read-out: Visual Growth Reduction (%) 14 Days After Application, EPHHL
[8] = Helianthus annuus, sunflower (Helianthus annuus), read-out: Visual Growth Reduction (%) 14 Days After Application, HELAN
[9] = Cyperus esculentus, yellow nutsedge (Cyperus esculentus), read-out: Visual Growth Reduction (%) 14 Days After Application, CYPES
[10] = Echinochloa crus-galli, barnyardgrass (Echinochloa crus-galli), read-out: Visual Growth Reduction (%) 14 Days After Application, ECHCG
[11] = Oryza sativa, rice (Oryza sativa), read-out: Visual Growth Reduction (%) 14 Days After Application, ORYSA
[12] = Setaria faberi, giant foxtail (Setaria faberi), read-out: Visual Growth Reduction (%) 14 Days After Application, SETFA
[13] = Triticum aestivum, wheat, spring (Triticum aestivum), read-out: Visual Growth Reduction (%) 14 Days After Application, TRZAS
[14] = Zea mays, maize, corn (Zea mays), read-out: Visual Growth Reduction (%) 14 Days After Application, ZEAMX

Row | Structure (SMILES) | pest or weed control at 35 g/ha [1, 3] | pest or weed control at 70 g/ha [1, 3] | pest or weed control at 140 g/ha [1, 3] | pest or weed control at 35 g/ha [1, 4] | pest or weed control at 70 g/ha [1, 4] | pest or weed control at 140 g/ha [1, 4] | pest or weed control at 35 g/ha [1, 5] | pest or weed control at 70 g/ha [1, 5] | pest or weed control at 140 g/ha [1, 5] | pest or weed control at 35 g/ha [1, 6] | pest or weed control at 70 g/ha [1, 6] | pest or weed control at 140 g/ha [1, 6] | pest or weed control at 35 g/ha [1, 7] | pest or weed control at 70 g/ha [1, 7] | pest or weed control at 140 g/ha [1, 7] | pest or weed control at 35 g/ha [1, 8] | pest or weed control at 70 g/ha [1, 8] | pest or weed control at 140 g/ha [1, 8] | pest or weed control at 35 g/ha [2, 9] | pest or weed control at 70 g/ha [2, 9] | other results
1 | COC(=O)c1nc(-c2ccc3sccc3c2)c(F)c(N)c1Cl [Compound 3.03] | 95 to 100% | 95 to 100% | 95 to 100% | 95 to 100% | 95 to 100% | 95 to 100% | 0 to 29% | 60 to 74% | 60 to 74% | 95 to 100% | 95 to 100% | 95 to 100% | 95 to 100% | 95 to 100% | 95 to 100% | 95 to 100% | 95 to 100% | 95 to 100% | 45 to 59% | 45 to 59% | pest or weed control at 140 g/ha [2, 9]: 45 to 59%; pest or weed control at 35 g/ha [2, 10]: 85 to 94%; pest or weed control at 70 g/ha [2, 10]: 95 to 100%; pest or weed control at 140 g/ha [2, 10]: 95 to 100%; pest or weed control at 35 g/ha [2, 11]: 0 to 29%; pest or weed control at 70 g/ha [2, 11]: 0 to 29%; pest or weed control at 140 g/ha [2, 11]: 0 to 29%; pest or weed control at 35 g/ha [2, 12]: 0 to 29%; pest or weed control at 70 g/ha [2, 12]: 85 to 94%; pest or weed control at 140 g/ha [2, 12]: 85 to 94%; pest or weed control at 35 g/ha [2, 13]: 0 to 29%; pest or weed control at 70 g/ha [2, 13]: 30 to 44%; pest or weed control at 140 g/ha [2, 13]: 45 to 59%; pest or weed control at 35 g/ha [2, 14]: 95 to 100%; pest or weed control at 70 g/ha [2, 14]: 95 to 100%; pest or weed control at 140 g/ha [2, 14]: 95 to 100%; melting point: 84 to 85 °C
2 | COC(=O)c1nc(-c2ccc3sccc3c2)c(C)c(N)c1Cl [Compound 3.06] | 45 to 59% | 60 to 74% | 85 to 94% | 85 to 94% | 85 to 94% | 95 to 100% | 30 to 44% | 30 to 44% | 45 to 59% | 30 to 44% | 60 to 74% | 60 to 74% | 0 to 29% | 0 to 29% | 30 to 44% | 95 to 100% | 95 to 100% | 95 to 100% | 0 to 29% | 0 to 29% | pest or weed control at 140 g/ha [2, 9]: 0 to 29%; pest or weed control at 35 g/ha [2, 10]: 0 to 29%; pest or weed control at 70 g/ha [2, 10]: 0 to 29%; pest or weed control at 140 g/ha [2, 10]: 0 to 29%; pest or weed control at 35 g/ha [2, 11]: 0 to 29%; pest or weed control at 70 g/ha [2, 11]: 0 to 29%; pest or weed control at 140 g/ha [2, 11]: 0 to 29%; pest or weed control at 35 g/ha [2, 12]: 0 to 29%; pest or weed control at 70 g/ha [2, 12]: 0 to 29%; pest or weed control at 140 g/ha [2, 12]: 0 to 29%; pest or weed control at 35 g/ha [2, 13]: 0 to 29%; pest or weed control at 70 g/ha [2, 13]: 0 to 29%; pest or weed control at 140 g/ha [2, 13]: 0 to 29%; pest or weed control at 35 g/ha [2, 14]: 0 to 29%; pest or weed control at 70 g/ha [2, 14]: 0 to 29%; pest or weed control at 140 g/ha [2, 14]: 0 to 29%; melting point: 155 to 159 °C
